Experimental data from US11117892B2, “Pyrrolo-pyridine derivative compound, method for preparing same, and pharmaceutical composition containing same as active ingredient for prevention or treatment of protein kinase-related diseases” (DAEGU-GYEONGBUK MEDICAL INNOVATION FOUNDATION, priority 2017, dated 2021).

What was measured:
Assay in all cases: scanMAX Kinase assay panel
Type in all cases: binding
Details in all cases: read-out: % control
[1] = biological target: ABL1(F317L)-phosphorylated (Homo sapiens (Human), UniProt P00519, F317L)
How it was run: (§1)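 Panel: scanMAX. Metric: % control. The 100% anchor is DMSO and the 0% anchor is the positive control.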

[2] = biological target: ABL1(H396P)-nonphosphorylated (Homo sapiens (Human), UniProt P00519, H396P)
How it was run: as §1

[3] = biological target: ABL1-nonphosphorylated (Homo sapiens (Human), UniProt P00519)
How it was run: as §1

[4] = biological target: ALK(C1156Y) (Homo sapiens (Human), UniProt Q9UM73, C1156Y)
How it was run: as §1

[5] = biological target: CAMK1D (Homo sapiens (Human), UniProt Q8IU85)
How it was run: as §1

[6] = biological target: CAMK2A (Homo sapiens (Human), UniProt Q9UQM7)
CAMK2A, sequence (Q9UQM7 whole entry): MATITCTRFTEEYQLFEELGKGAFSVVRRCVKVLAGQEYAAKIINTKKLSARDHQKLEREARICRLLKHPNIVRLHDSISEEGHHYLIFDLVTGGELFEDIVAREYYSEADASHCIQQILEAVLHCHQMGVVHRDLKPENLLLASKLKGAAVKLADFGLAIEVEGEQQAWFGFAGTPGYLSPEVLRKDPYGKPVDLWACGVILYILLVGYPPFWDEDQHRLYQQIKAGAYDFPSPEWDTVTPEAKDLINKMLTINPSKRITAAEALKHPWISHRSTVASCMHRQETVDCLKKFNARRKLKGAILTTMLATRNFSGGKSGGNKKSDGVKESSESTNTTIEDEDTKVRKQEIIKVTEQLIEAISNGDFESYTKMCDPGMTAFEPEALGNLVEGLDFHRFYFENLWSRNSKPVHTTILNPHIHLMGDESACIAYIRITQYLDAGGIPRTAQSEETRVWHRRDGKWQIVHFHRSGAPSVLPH
How it was run: as §1

[7] = biological target: CAMK2D (Homo sapiens (Human), UniProt Q13557)
How it was run: as §1

[8] = biological target: CDK11 (Homo sapiens (Human), UniProt Q9BWU1)
How it was run: as §1

[9] = biological target: CDKL1 (Homo sapiens (Human), UniProt Q00532)
How it was run: as §1

[10] = biological target: CDKL5 (Homo sapiens (Human), UniProt O76039)
CDKL5, sequence (O76039 whole entry): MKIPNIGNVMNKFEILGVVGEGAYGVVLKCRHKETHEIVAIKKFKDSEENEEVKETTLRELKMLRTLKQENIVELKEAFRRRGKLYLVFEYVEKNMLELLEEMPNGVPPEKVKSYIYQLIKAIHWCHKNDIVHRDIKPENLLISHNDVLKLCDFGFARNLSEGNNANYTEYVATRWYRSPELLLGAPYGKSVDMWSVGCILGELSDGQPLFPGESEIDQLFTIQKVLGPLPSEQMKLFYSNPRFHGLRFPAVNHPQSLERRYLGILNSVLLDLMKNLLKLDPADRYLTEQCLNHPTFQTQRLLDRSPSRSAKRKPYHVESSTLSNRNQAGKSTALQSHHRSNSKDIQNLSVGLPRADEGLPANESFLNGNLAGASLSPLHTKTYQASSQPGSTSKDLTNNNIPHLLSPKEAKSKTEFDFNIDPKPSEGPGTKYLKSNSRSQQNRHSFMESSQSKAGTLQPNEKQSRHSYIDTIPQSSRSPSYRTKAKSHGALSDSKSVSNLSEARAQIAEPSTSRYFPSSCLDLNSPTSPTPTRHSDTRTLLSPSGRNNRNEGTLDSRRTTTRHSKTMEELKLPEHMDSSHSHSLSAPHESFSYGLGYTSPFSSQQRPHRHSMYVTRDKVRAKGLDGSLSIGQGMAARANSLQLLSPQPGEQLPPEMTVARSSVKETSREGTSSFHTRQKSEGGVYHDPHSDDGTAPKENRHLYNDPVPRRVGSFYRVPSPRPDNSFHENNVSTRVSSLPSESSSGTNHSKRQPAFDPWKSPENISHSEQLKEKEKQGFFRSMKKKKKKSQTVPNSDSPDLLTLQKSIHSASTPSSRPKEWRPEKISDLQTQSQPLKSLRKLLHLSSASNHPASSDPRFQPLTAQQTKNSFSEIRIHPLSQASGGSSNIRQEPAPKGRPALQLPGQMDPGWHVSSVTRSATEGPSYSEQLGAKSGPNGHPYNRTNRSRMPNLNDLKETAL
How it was run: as §1

[11] = biological target: CSNK2A2 (Homo sapiens (Human), UniProt P19784)
CSNK2A2, sequence (P19784 whole entry): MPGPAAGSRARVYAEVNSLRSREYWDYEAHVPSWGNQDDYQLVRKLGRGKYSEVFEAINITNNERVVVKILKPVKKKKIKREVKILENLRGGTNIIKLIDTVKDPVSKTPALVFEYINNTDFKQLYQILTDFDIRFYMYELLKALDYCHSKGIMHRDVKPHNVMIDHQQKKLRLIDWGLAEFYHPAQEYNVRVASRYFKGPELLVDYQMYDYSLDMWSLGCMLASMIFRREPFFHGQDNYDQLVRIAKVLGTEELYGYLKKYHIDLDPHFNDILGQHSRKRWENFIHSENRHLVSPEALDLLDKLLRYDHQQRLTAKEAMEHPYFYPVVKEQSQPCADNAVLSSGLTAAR
How it was run: as §1

[12] = biological target: EGFR(L858R) (Homo sapiens (Human), UniProt P00533, L858R)
How it was run: as §1

[13] = biological target: EGFR(T790M) (Homo sapiens (Human), UniProt P00533, T790M)
How it was run: as §1

[14] = biological target: EPHA4 (Homo sapiens (Human), UniProt P54764)
How it was run: as §1

[15] = biological target: ERK1 (Homo sapiens (Human), UniProt P27361)
ERK1, sequence (P27361 whole entry): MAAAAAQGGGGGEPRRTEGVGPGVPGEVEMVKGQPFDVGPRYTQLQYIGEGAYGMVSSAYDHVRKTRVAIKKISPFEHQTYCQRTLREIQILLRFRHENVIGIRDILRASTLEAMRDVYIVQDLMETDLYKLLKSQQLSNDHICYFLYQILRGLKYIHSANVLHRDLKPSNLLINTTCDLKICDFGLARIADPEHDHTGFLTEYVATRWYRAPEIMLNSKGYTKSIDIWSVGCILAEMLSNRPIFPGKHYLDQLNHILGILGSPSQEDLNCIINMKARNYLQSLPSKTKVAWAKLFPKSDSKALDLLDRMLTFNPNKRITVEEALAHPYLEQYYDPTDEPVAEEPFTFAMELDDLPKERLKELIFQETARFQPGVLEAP
How it was run: as §1

[16] = biological target: ERK3 (Homo sapiens (Human), UniProt Q16659)
How it was run: as §1

[17] = biological target: ERK4 (Homo sapiens (Human), UniProt P31152)
ERK4, sequence (P31152 whole entry): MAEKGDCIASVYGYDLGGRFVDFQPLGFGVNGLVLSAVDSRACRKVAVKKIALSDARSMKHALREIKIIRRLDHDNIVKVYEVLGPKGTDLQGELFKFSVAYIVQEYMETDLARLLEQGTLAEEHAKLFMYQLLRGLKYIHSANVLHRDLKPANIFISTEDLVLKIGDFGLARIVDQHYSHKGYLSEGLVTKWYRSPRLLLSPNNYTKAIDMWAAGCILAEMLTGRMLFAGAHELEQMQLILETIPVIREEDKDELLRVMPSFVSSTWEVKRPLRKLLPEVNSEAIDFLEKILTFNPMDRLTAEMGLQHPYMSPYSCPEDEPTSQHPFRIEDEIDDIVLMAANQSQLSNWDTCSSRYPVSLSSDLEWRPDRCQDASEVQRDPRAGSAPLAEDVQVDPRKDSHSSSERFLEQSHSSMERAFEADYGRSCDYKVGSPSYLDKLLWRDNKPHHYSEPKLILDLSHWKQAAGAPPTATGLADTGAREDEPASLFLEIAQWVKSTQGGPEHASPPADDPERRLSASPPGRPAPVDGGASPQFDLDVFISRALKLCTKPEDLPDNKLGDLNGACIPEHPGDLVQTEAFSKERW
How it was run: as §1

[18] = biological target: FLT4 (Homo sapiens (Human), UniProt P35916)
How it was run: as §1

[19] = biological target: GRK1 (Homo sapiens (Human), UniProt Q15835)
How it was run: as §1

[20] = biological target: GRK3 (Homo sapiens (Human), UniProt P35626)
How it was run: as §1

[21] = biological target: JAK2(JH1domain-catalytic) (Homo sapiens (Human), UniProt O60674)
JAK2(JH1domain-catalytic), sequence (O60674 849-1124): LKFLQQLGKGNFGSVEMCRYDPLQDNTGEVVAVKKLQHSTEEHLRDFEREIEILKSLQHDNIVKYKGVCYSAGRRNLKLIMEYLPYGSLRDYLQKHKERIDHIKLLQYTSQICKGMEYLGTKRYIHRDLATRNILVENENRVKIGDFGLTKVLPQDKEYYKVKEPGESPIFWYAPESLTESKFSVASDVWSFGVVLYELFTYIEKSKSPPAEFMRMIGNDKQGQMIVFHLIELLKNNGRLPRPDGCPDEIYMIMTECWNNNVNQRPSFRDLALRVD
How it was run: as §1

[22] = biological target: KIT (Homo sapiens (Human), UniProt P10721)
How it was run: as §1

[23] = biological target: MLK3 (Homo sapiens (Human), UniProt Q16584)
How it was run: as §1

[24] = biological target: MST3 (Homo sapiens (Human), UniProt Q9Y6E0)
How it was run: as §1

[25] = biological target: MTOR (Homo sapiens (Human), UniProt P42345)
How it was run: as §1

[26] = biological target: MYLK (Homo sapiens (Human), UniProt Q15746)
How it was run: as §1

[27] = biological target: PAK6 (Homo sapiens (Human), UniProt Q9NQU5)
How it was run: as §1

[28] = biological target: PCTK2 (Homo sapiens (Human), UniProt Q00537)
How it was run: as §1

[29] = biological target: PKAC-alpha (Homo sapiens (Human), UniProt P17612)
How it was run: as §1

[30] = biological target: PKAC-beta (Homo sapiens (Human), UniProt P22694)
How it was run: as §1

[31] = biological target: PRKCE (Homo sapiens (Human), UniProt Q02156)
How it was run: as §1

[32] = biological target: RAF1 (Homo sapiens (Human), UniProt P04049)
How it was run: as §1

[33] = biological target: RIPK1 (Homo sapiens (Human), UniProt Q13546)
How it was run: as §1

[34] = biological target: RSK3(Kin.Dom.1-N-terminal) (Homo sapiens (Human), UniProt Q15349)
How it was run: as §1

[35] = biological target: SLK (Homo sapiens (Human), UniProt Q9H2G2)
SLK, sequence (Q9H2G2 whole entry): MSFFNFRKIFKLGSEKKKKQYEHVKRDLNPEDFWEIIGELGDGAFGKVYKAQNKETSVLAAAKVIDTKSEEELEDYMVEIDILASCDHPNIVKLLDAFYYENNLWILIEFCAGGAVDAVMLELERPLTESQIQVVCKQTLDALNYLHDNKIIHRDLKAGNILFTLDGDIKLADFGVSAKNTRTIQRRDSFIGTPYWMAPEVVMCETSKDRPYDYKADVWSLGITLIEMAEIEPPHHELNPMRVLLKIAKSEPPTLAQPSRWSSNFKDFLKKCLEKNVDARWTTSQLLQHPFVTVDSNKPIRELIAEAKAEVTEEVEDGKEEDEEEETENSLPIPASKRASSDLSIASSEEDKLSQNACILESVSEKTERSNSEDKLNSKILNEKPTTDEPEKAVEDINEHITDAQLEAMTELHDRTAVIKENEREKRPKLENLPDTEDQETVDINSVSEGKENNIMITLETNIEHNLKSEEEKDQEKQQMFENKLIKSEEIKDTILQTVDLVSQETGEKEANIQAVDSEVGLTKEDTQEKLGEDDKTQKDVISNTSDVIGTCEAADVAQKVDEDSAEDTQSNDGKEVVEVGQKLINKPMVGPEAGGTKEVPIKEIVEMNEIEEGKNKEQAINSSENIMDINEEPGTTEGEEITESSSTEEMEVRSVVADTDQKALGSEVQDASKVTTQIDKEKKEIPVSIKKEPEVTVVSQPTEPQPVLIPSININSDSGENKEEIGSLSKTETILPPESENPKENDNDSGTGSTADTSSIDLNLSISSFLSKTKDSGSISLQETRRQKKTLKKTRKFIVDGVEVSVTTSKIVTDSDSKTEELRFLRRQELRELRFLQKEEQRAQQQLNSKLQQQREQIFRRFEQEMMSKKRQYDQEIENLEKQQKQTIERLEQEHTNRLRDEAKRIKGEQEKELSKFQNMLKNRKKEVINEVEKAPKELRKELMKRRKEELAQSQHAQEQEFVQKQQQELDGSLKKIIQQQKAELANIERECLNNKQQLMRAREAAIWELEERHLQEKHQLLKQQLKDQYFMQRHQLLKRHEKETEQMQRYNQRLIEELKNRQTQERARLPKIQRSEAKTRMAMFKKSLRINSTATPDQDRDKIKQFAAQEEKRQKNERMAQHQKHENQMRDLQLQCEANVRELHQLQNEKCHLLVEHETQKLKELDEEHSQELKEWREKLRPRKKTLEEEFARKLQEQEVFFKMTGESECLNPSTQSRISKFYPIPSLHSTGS
How it was run: as §1

[36] = biological target: SRPK3 (Homo sapiens (Human), UniProt Q9UPE1)
How it was run: as §1

[37] = biological target: TBK1 (Homo sapiens (Human), UniProt Q9UHD2)
TBK1, sequence (Q9UHD2 whole entry): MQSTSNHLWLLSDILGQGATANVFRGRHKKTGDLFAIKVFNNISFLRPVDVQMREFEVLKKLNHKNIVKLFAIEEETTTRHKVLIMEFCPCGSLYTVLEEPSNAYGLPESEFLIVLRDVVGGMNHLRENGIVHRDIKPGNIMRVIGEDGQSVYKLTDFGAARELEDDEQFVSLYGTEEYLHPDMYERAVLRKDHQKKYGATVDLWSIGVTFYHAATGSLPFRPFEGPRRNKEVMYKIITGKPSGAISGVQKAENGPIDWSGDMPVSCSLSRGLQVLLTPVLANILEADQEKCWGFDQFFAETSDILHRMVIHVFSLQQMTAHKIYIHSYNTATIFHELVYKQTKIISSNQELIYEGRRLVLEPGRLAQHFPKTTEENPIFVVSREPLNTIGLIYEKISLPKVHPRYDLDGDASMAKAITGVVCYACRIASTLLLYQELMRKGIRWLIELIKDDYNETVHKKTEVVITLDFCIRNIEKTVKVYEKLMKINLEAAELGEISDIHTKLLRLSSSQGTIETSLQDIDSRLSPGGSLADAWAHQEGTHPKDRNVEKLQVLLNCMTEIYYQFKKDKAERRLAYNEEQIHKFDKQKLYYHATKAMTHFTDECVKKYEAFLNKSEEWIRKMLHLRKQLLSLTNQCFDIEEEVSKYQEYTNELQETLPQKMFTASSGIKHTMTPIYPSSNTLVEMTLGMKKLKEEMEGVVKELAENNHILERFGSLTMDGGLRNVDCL
How it was run: as §1

[38] = biological target: TNNI3K (Homo sapiens (Human), UniProt Q59H18)
How it was run: as §1

[39] = biological target: TSSK3 (Homo sapiens (Human), UniProt Q96PN8)
How it was run: as §1

Which results are given for CCNc1cc(Nc2ccc(C(=O)N3CCC(N4CCOCC4)CC3)cc2OC)nc2[nH]cc(C#N)c12 [Example 18, 4-(ethylamino)-6-((2-methoxy-4-(4-morpholinopiperidine-1-carbonyl)phenyl)amino)-1H-pyrrolo[2,3-b]pyridine-3-carbonitrile]?
remaining binding at 1 µM [1]: 100%; remaining binding at 1 µM [2]: 89%; remaining binding at 1 µM [3]: 97%; remaining binding at 1 µM [4]: 2.4%; remaining binding at 1 µM [5]: 31%; remaining binding at 1 µM [6]: 72%; remaining binding at 1 µM [7]: 82%; remaining binding at 1 µM [8]: 98%; remaining binding at 1 µM [9]: 89%; remaining binding at 1 µM [10]: 100%; remaining binding at 1 µM [11]: 97%; remaining binding at 1 µM [12]: 100%; remaining binding at 1 µM [13]: 100%; remaining binding at 1 µM [14]: 98%; remaining binding at 1 µM [15]: 100%; remaining binding at 1 µM [16]: 85%; remaining binding at 1 µM [17]: 98%; remaining binding at 1 µM [18]: 100%; remaining binding at 1 µM [19]: 81%; remaining binding at 1 µM [20]: 58%; remaining binding at 1 µM [21]: 70%; remaining binding at 1 µM [22]: 49%; remaining binding at 1 µM [23]: 99%; remaining binding at 1 µM [24]: 88%; remaining binding at 1 µM [25]: 86%; remaining binding at 1 µM [26]: 6%; remaining binding at 1 µM [27]: 98%; remaining binding at 1 µM [28]: 100%; remaining binding at 1 µM [29]: 70%; remaining binding at 1 µM [30]: 66%; remaining binding at 1 µM [31]: 77%; remaining binding at 1 µM [32]: 97%; remaining binding at 1 µM [33]: 94%; remaining binding at 1 µM [34]: 92%; remaining binding at 1 µM [35]: 95%; remaining binding at 1 µM [36]: 96%; remaining binding at 1 µM [37]: 76%; remaining binding at 1 µM [38]: 91%; remaining binding at 1 µM [39]: 30%

CCNc1cc(Nc2ccc(C(=O)N3CCC(N4CCOCC4)CC3)cc2OC)nc2[nH]cc(C(F)(F)F)c12 [Example 57, (4-((4-(ethylamino)-3-(trifluoromethyl)-1H-pyrrolo[2,3-b]pyridin-6-yl)amino)-3-methoxyphenyl) (4-morpholinopiperidin-1-yl)methanone] was tested. Which remaining binding at 1 µM [1] did it give?
The remaining binding at 1 µM was 100%.

What about the remaining binding at 1 µM [2] of the same compound?
The remaining binding at 1 µM was 68%.

What about the remaining binding at 1 µM [3] of the same compound?
The remaining binding at 1 µM was 51%.

What about the remaining binding at 1 µM [4] of the same compound?
Its remaining binding at 1 µM is 3.5%.

And the remaining binding at 1 µM [5]?
Its remaining binding at 1 µM is 73%.

And the remaining binding at 1 µM [6]?
The remaining binding at 1 µM was 72%.

And the remaining binding at 1 µM [7]?
The remaining binding at 1 µM was 47%.

What about the remaining binding at 1 µM [8] of the same compound?
Its remaining binding at 1 µM is 67%.

And the remaining binding at 1 µM [9]?
The remaining binding at 1 µM was 63%.

And the remaining binding at 1 µM [10]?
Its remaining binding at 1 µM is 91%.

And the remaining binding at 1 µM [11]?
The remaining binding at 1 µM was 80%.

What about the remaining binding at 1 µM [12] of the same compound?
Its remaining binding at 1 µM is 100%.

What about the remaining binding at 1 µM [13] of the same compound?
The remaining binding at 1 µM was 88%.

What about the remaining binding at 1 µM [14] of the same compound?
Its remaining binding at 1 µM is 94%.

What about the remaining binding at 1 µM [15] of the same compound?
Its remaining binding at 1 µM is 98%.

What about the remaining binding at 1 µM [16] of the same compound?
The remaining binding at 1 µM was 94%.

And the remaining binding at 1 µM [17]?
Its remaining binding at 1 µM is 93%.

And the remaining binding at 1 µM [18]?
Its remaining binding at 1 µM is 99%.

And the remaining binding at 1 µM [19]?
The remaining binding at 1 µM was 94%.

And the remaining binding at 1 µM [20]?
The remaining binding at 1 µM was 100%.

What about the remaining binding at 1 µM [21] of the same compound?
The remaining binding at 1 µM was 100%.

What about the remaining binding at 1 µM [22] of the same compound?
The remaining binding at 1 µM was 91%.

And the remaining binding at 1 µM [23]?
The remaining binding at 1 µM was 80%.

And the remaining binding at 1 µM [24]?
The remaining binding at 1 µM was 84%.

And the remaining binding at 1 µM [25]?
The remaining binding at 1 µM was 88%.

What about the remaining binding at 1 µM [26] of the same compound?
Its remaining binding at 1 µM is 7.8%.

What about the remaining binding at 1 µM [27] of the same compound?
The remaining binding at 1 µM was 78%.

What about the remaining binding at 1 µM [28] of the same compound?
Its remaining binding at 1 µM is 98%.

What about the remaining binding at 1 µM [29] of the same compound?
Its remaining binding at 1 µM is 100%.

And the remaining binding at 1 µM [30]?
The remaining binding at 1 µM was 92%.

What about the remaining binding at 1 µM [31] of the same compound?
Its remaining binding at 1 µM is 64%.

What about the remaining binding at 1 µM [32] of the same compound?
The remaining binding at 1 µM was 72%.

And the remaining binding at 1 µM [33]?
The remaining binding at 1 µM was 92%.

And the remaining binding at 1 µM [34]?
The remaining binding at 1 µM was 75%.

What about the remaining binding at 1 µM [35] of the same compound?
Its remaining binding at 1 µM is 80%.

And the remaining binding at 1 µM [36]?
The remaining binding at 1 µM was 100%.

What about the remaining binding at 1 µM [37] of the same compound?
The remaining binding at 1 µM was 85%.

And the remaining binding at 1 µM [38]?
The remaining binding at 1 µM was 100%.

What about the remaining binding at 1 µM [39] of the same compound?
Its remaining binding at 1 µM is 91%.
